Active and inactive are the calls of the source.
Experiments:
[1] = target: T1, Tyrosine-protein phosphatase non-receptor type 7 (Homo sapiens, UniProt P35236); experiment: redox-dependent HePTP inhibition, mechanism study, biochemical, fluorescence (AID 2068); type: functional
T1 sequence (P35236 whole entry): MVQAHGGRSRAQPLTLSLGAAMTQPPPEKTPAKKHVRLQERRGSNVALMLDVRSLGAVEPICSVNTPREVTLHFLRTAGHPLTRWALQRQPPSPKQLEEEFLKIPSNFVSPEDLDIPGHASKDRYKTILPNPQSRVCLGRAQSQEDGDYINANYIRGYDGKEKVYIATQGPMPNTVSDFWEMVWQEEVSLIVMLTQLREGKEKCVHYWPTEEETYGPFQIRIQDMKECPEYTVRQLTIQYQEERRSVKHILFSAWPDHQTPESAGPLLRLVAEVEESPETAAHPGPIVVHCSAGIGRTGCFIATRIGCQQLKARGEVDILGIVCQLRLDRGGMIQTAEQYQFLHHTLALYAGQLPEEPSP

[2] = target: T2, Dual specificity protein phosphatase 6 (Rattus norvegicus, UniProt Q64346); type: functional;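 also: confirmatory in vitro dose-response testing of MKP-3 inhibition; recombinant His-tagged MKP-3 made in E. coli BL21 with OMFP substrate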
T2 sequence (Q64346 whole entry): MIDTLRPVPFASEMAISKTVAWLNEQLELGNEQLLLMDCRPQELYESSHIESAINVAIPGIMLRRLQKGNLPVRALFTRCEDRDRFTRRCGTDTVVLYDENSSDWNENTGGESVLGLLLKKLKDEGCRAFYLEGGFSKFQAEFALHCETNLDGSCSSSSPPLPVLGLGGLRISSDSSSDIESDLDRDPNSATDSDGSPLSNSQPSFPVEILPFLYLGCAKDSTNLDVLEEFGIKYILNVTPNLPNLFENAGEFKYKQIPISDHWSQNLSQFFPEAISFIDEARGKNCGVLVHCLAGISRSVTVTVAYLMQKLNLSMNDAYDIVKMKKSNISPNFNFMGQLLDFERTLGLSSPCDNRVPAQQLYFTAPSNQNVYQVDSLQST

[3] = target: Hexokinase (Trypanosoma brucei, UniProt Q38C41); experiment: Confirmation assay for inhibitors of Trypanosoma brucei hexokinase 1-Analogue-first series. [Related pubchem assays (depositor defined):AID1430, AID1632, AID2516, AID2560, AID2579, AID2600, AID449725, AID492951]; type: functional
Hexokinase, sequence (Q38C41 whole entry): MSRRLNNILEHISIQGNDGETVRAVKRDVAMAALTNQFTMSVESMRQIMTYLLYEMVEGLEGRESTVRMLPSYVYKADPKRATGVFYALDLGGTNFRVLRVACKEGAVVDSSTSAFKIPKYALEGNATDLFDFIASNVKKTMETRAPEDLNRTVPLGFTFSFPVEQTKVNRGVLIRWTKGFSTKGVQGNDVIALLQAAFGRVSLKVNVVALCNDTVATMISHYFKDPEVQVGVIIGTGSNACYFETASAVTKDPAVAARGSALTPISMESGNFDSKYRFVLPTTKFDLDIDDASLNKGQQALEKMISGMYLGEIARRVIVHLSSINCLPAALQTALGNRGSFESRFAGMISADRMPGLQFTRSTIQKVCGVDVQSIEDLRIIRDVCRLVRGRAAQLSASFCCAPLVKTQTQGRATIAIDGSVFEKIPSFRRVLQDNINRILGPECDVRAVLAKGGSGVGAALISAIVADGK

[4] = target: T3, Neuropeptides B/W receptor type 1 (Homo sapiens, UniProt P48145); experiment: Fluorescence-based dose response cell-based high throughput screening assay to identify antagonists of the G-protein coupled receptor 7 (GPR7). [Related pubchem assays: 1952 (Screening assay (GPR7 antagonists).), 1880 (Summary AID.)]; type: functional
T3 sequence (P48145 whole entry): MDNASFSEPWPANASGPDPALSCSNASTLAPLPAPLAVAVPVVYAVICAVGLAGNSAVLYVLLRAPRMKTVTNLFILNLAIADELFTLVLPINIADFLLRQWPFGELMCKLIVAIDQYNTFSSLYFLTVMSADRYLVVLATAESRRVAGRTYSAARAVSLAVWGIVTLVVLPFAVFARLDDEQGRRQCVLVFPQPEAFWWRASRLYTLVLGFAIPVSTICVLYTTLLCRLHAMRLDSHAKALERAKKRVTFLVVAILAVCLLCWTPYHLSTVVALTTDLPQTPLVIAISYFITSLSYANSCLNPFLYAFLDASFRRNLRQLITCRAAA

[5] = target: Melanin-concentrating hormone receptor 1 (Homo sapiens, UniProt Q99705); experiment: Fluorescence-based counterscreen for antagonists of the G-protein coupled receptor 7 (GPR7): cell-based high throughput dose response assay to identify antagonists of the melanin-concentrating hormone receptor 1 (MCHR1).; type: functional
Melanin-concentrating hormone receptor 1, sequence (Q99705 whole entry): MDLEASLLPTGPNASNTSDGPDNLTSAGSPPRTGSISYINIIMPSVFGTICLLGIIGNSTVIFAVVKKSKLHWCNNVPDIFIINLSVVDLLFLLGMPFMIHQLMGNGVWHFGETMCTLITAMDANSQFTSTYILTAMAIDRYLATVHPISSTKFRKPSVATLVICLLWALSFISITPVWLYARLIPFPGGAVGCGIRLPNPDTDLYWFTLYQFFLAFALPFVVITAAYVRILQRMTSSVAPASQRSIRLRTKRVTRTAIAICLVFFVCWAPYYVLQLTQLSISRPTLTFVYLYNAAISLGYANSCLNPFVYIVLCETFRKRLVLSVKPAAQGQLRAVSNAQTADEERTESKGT

[6] = target: G-protein coupled receptor 55 (Homo sapiens, UniProt Q9Y2T6); experiment: GPR55 agonists via beta-arrestin recruitment, primary screen, imaging, U2OS cells, beta-arrestin-GFP redistribution (AID 1961); type: functional
[7] = target: Trypsin (Sus scrofa, UniProt P00761); experiment: porcine trypsin inhibitors, dose response, selectivity assay for Rce1 protease inhibitor project, biochemical, quenched peptide fluorescence, cherry-pick (AID 488789)
Trypsin, sequence (P00761 whole entry): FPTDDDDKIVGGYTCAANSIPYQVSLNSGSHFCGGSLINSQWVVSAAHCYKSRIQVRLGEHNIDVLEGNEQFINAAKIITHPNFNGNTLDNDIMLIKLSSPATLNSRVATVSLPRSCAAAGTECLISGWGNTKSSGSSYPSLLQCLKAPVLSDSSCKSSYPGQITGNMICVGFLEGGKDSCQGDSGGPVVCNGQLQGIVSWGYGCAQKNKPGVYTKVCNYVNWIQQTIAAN

[8] = target: T4, CAAX prenyl protease 2 (Saccharomyces cerevisiae S288c, UniProt Q03530); type: biochemical
T4 sequence (Q03530 whole entry): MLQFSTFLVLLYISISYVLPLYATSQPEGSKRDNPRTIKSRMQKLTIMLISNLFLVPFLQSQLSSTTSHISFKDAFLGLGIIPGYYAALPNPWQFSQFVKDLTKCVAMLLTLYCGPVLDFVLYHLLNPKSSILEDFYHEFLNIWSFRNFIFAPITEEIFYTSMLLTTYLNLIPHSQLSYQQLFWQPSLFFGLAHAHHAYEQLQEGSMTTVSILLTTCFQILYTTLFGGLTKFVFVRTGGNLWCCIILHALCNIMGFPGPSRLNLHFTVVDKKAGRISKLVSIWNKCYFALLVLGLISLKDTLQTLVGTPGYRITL

[9] = target: Mu-type opioid receptor (Homo sapiens, UniProt P35372); experiment: SAR Analysis of Antagonists of the MOR Receptor using an Image-Based Assay - Set 3. [Related pubchem assays (depositor defined):AID1777, AID1785, AID1786, AID1966, AID2133, AID2136, AID2284, AID2285, AID2420]; type: functional
Mu-type opioid receptor, sequence (P35372 whole entry): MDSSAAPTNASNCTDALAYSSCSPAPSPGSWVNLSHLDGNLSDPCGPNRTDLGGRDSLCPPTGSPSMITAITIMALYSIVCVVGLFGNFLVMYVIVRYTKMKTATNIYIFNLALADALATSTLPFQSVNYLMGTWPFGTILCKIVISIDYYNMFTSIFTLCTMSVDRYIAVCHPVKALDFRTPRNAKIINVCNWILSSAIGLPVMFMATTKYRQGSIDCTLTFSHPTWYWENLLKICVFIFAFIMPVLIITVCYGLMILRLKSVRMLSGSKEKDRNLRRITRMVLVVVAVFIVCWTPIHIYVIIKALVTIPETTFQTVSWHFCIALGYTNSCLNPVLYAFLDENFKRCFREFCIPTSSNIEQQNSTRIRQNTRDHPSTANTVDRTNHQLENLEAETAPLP

[10] = target: T5, Kappa-type opioid receptor (Homo sapiens, UniProt P41145); experiment: SAR analysis of small molecule antagonists of the kappa opioid receptor via a luminescent beta-arrestin assay - Set 4. [Related pubchem assays (depositor defined):AID1777, AID1778, AID1785, AID1786, AID1966, AID2133, AID2136, AID2285]; type: functional
T5 sequence (P41145 whole entry): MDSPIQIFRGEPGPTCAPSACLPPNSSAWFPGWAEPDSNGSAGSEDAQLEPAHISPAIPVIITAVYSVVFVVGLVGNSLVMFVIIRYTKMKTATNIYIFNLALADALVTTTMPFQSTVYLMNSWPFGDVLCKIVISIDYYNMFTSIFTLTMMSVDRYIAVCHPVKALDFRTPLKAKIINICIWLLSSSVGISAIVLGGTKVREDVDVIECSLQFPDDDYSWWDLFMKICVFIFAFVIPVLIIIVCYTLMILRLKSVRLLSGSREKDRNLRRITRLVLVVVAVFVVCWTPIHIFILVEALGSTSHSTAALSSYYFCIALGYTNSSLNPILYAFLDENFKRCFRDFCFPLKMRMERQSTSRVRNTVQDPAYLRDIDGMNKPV

[11] = target: Delta-type opioid receptor (Homo sapiens, UniProt P41143); experiment: SAR Analysis of Antagonists of the DOR Receptor using an Image-Based Assay - Set 3. [Related pubchem assays (depositor defined):AID1777, AID1785]; type: functional;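 also: U2OS cells expressing DOR1 and beta-arrestin GFP stimulated with 100 nM SNC80; imaging of GFP-tagged beta-arrestin moving into spots after receptor activation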
Delta-type opioid receptor, sequence (P41143 whole entry): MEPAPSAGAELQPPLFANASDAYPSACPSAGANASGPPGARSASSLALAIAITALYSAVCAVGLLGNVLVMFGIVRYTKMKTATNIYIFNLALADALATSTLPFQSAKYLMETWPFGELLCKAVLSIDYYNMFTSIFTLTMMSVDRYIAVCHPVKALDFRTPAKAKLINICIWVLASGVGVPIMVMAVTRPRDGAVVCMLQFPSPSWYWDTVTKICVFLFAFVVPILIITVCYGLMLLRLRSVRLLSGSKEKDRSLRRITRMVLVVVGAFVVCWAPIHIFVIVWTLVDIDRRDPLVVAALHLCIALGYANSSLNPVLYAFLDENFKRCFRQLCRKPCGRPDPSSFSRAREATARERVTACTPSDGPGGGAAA

[12] = target: T5, Kappa-type opioid receptor; experiment: SAR analysis of Antagonists of the Kappa Opioid Receptor (KOR) using an Image-Based Assay - Set 4. [Related pubchem assays (depositor defined):AID1777, AID1785]; type: functional
[13] = target: T6, RNA-binding protein pos-1 (Caenorhabditis elegans, UniProt G5EF15); experiment: inhibitors of POS-1/mex-3 RNA binding, dose response, biochemical, fluorescence polarization (AID 1964);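 also: purified POS-1 fused to maltose binding protein made in E. coli; potency of compounds blocking POS-1 binding to fluorescent RNA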
T6 sequence (G5EF15 whole entry): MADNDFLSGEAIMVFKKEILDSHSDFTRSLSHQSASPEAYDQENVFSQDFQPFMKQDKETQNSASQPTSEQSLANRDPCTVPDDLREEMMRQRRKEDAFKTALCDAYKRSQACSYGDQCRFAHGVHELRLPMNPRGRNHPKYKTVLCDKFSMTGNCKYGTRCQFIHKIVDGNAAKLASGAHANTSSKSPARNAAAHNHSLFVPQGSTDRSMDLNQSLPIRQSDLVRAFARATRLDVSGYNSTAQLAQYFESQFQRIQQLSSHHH

[14] = target: T7, SUMO-activating enzyme (Homo sapiens, UniProt Q9UBT2); experiment: SUMOylation inhibitor hit validation, confirmation, SUMOylation inhibitor project, biochemical, AlphaScreen (AID 2018); type: functional
T7 sequence (Q9UBE0 whole entry): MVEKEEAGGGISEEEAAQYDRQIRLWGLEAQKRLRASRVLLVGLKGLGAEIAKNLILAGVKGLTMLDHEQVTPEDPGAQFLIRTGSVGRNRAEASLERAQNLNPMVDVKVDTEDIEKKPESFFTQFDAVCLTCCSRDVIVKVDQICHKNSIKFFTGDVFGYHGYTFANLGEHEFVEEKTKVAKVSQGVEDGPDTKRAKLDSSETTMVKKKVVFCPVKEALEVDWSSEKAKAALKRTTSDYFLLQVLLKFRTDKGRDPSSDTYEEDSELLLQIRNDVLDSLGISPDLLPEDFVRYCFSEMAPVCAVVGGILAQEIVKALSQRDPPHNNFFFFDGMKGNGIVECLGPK
T7 sequence (Q9UBT2 whole entry): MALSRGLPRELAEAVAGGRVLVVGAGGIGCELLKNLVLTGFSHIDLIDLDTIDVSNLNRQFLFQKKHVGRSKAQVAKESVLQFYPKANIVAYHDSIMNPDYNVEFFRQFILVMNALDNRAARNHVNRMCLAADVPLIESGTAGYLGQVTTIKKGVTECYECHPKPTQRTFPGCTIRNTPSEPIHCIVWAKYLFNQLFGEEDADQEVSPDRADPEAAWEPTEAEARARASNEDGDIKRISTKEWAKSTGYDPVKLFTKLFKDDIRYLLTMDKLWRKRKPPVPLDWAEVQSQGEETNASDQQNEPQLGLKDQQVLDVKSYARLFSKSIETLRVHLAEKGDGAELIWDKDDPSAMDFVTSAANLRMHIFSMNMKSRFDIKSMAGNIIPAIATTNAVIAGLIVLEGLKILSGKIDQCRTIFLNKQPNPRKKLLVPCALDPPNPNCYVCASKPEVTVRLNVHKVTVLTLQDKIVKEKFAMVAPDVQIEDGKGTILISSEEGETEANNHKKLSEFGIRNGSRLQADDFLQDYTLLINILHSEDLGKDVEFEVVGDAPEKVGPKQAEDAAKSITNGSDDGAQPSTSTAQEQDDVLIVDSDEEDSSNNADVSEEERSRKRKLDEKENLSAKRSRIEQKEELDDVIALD

[15] = target: T8, Zinc finger protein mex-5 (Caenorhabditis elegans, UniProt Q9XUB2); experiment: MEX-5/TCR-2 RNA interaction inhibitors, dose response, biochemical, C. elegans, fluorescence polarization (AID 1960)
T8 sequence (Q9XUB2 whole entry): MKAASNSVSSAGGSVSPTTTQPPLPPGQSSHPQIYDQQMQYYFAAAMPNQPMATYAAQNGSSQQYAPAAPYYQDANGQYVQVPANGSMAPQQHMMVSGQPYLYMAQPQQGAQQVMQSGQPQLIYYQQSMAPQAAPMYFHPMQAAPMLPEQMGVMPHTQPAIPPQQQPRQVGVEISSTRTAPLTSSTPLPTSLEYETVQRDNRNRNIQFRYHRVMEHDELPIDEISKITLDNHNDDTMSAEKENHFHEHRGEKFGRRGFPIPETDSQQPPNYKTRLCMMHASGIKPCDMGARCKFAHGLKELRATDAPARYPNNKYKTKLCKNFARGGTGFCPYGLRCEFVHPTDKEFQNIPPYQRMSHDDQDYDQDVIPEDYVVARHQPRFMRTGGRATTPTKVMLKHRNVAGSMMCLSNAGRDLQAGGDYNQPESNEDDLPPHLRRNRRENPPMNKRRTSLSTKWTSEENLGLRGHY

[16] = target: T7, SUMO-activating enzyme; experiment: inhibitors of in vitro SUMOylation cascade, primary screen, biochemical, HTRF, uHTS (AID 2006); type: protein-complex assay
[17] = target: T9, Cysteine protease ATG4B (Homo sapiens, UniProt Q9Y4P1); type: functional;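 also: Fluorescence-based dose-response confirmation assay measuring inhibition of ATG4B activity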
T9 sequence (Q9Y4P1 whole entry): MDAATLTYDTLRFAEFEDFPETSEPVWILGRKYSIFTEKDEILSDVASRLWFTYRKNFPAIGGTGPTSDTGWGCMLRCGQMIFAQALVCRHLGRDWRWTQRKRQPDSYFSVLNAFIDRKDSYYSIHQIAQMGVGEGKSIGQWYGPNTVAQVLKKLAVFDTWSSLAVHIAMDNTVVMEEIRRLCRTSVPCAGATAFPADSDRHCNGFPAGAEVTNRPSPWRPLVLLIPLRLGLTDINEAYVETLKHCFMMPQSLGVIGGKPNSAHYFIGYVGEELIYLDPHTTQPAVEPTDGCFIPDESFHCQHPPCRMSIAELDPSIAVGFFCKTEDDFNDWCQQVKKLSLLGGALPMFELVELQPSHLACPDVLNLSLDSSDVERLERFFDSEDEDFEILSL

[18] = target: Phospholipase A2 (Homo sapiens, UniProt P04054); type: functional;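 also: confirmatory dose-response counterscreen on phospholipase A2, testing hits that came from an ultra-high-throughput screen for ATG4B inhibitors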
Phospholipase A2, sequence (P04054 whole entry, the tested form may be a part): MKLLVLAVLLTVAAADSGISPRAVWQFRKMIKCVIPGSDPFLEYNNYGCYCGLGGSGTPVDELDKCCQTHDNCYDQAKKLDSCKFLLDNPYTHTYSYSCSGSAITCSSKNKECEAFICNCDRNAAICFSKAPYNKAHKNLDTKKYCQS

[19] = target: T10, Carboxy-terminal domain RNA polymerase II polypeptide A small phosphatase 1 (Homo sapiens, UniProt Q9GZU7); experiment: inhibitors of CTDSP1, concentration-response testing, biochemical assay, absorbance-based, actives from ultra-high-throughput screening (AID 540297); type: functional
T10 sequence (Q9GZU7 whole entry): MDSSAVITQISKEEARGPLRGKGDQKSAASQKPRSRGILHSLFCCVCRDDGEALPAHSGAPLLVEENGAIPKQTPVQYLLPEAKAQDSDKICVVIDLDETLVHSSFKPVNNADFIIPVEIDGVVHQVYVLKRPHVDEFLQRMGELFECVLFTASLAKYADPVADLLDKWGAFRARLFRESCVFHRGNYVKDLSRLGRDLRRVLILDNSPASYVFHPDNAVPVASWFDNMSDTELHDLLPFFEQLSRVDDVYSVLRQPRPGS

[20] = target: Large T antigen (Simian virus 40, UniProt P03070); type: functional, Betapolyomavirus macacae;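 also: Confirmatory-stage PubChem screen for compounds that inhibit SV40 T antigen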
[21] = target: Induced myeloid leukemia cell differentiation protein Mcl-1 (Homo sapiens, UniProt Q07820); type: functional
[22] = target: ORF 73 (Human herpesvirus 8, UniProt O40947); experiment: inhibitors of C-LANA binding to LBS DNA, dose response, biochemical, fluorescence polarization, cherry-picked samples (AID 504725); parameters: species or system Human gammaherpesvirus 8;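 also: fluorescence polarization of a labeled DNA duplex reporting LANA DNA binding; potency is for inhibitors that block LANA binding to the DNA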
[23] = target: DNA (cytosine-5)-methyltransferase 1 (Homo sapiens, UniProt P26358); experiment: DNMT1 methyltransferase inhibitors, confirmation, biochemical, fluorescent molecular beacon (AID 602386); type: functional
DNA (cytosine-5)-methyltransferase 1, sequence (P26358 whole entry): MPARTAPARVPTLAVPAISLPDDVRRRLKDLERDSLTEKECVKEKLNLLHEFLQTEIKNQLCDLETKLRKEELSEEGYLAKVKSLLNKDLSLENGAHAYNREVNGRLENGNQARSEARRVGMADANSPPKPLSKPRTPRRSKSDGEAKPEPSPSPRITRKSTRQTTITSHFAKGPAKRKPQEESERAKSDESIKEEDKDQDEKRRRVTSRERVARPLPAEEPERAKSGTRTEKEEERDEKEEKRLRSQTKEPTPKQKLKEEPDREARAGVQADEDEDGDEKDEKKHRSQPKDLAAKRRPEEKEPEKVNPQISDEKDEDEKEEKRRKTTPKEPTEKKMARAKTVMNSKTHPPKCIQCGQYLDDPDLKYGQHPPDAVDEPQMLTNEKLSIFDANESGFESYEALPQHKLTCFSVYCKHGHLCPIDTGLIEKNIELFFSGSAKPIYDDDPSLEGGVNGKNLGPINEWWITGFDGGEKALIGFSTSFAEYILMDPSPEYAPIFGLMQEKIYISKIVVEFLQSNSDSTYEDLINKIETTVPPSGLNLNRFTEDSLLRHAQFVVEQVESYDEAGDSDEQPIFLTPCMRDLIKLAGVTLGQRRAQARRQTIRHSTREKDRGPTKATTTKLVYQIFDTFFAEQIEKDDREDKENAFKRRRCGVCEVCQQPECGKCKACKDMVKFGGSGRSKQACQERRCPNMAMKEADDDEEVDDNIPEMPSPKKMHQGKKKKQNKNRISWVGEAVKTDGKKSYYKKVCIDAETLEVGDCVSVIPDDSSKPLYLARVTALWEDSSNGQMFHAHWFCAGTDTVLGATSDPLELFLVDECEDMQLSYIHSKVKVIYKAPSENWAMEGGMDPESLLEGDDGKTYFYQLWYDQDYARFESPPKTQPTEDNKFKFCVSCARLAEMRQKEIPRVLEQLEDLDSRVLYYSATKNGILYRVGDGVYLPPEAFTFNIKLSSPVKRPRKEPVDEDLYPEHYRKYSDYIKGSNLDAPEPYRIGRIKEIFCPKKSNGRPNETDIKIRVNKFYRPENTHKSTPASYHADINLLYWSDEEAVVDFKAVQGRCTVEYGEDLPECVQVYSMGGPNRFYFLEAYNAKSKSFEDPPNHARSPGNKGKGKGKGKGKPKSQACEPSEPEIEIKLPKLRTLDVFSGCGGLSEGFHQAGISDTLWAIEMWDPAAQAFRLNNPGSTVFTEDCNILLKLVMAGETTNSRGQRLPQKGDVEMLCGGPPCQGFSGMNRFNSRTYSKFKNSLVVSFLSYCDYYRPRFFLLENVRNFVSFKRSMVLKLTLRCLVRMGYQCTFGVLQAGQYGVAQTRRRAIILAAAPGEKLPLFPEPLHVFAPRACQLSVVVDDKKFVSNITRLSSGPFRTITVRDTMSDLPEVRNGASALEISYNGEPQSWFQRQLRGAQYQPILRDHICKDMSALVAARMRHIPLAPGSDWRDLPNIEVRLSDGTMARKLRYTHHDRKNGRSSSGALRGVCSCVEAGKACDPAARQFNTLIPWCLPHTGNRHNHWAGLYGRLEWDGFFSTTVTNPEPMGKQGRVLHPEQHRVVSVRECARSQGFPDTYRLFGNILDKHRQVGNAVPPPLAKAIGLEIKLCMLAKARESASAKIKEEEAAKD

[24] = target: T11, Caspase-6 (Homo sapiens, UniProt P55212); experiment: human caspase-6 inhibitors, dose response, biochemical, VEID-R110 fluorescence, cherry-pick (AID 720632)
T11 sequence (P55212 whole entry): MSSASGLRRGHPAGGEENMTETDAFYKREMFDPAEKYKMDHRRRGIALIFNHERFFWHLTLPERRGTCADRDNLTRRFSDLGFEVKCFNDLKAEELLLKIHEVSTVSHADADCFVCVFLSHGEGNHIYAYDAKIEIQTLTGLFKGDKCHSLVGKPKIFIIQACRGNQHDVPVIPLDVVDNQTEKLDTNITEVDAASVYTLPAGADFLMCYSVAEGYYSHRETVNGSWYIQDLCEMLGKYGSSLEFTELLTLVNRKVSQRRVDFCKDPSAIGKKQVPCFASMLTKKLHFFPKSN

Compound: COc1cc(C(=S)NC(C)(C)C)ccc1O
- IC50 [1]: 13.1 µM (active)
- IC50 [2]: > 100 µM (inactive)

Compound: COc1cccc(CC(=O)Nc2cc(Cl)ccc2C(=O)O)c1
- IC50 [3]: > 25 µM (inactive)

Compound: Cc1ccc(Cl)cc1N1CCN(C(=O)c2ccc3c(c2)CCN3S(C)(=O)=O)CC1
- IC50 [4]: 23.5 µM (not active)
- IC50 [5]: 16.9 µM (not active)
- EC50 [6]: 21 µM (inactive)

Compound: O=C(NCCc1cccnc1)c1cc(COc2ccc(F)cc2Cl)on1
- AC50 [7]: 8.75 µM (active)
- AC50 [8]: 10.7 µM (active)

Compound: COc1ccc(N2CCN(CCNC(=O)Cn3c(=O)c4cccn4c4c(C)ccnc43)CC2)cc1
- IC50 [9]: > 32 µM (inactive)
- IC50 [10]: 14.1 µM (inactive)
- IC50 [11]: > 32 µM (inactive)
- IC50 [12]: > 32 µM (inactive)

Compound: O=C(Cn1sc2ccccc2c1=O)Nc1ccccc1C(F)(F)F
- IC50 [3]: > 25 µM (inactive)

Compound: CCC(C)c1ccc(S(=O)(=O)NCc2ccc(C(=O)NCCN(Cc3ccccc3)C(C)C)cc2)cc1 (stereo not drawn)
- IC50 [9]: > 32 µM (inactive)
- IC50 [10]: 1.6 µM (active)
- IC50 [11]: > 32 µM (inactive)
- IC50 [12]: 2.01 µM (active)

Compound: Cc1cc(C)n2cc(CSCC(=O)O)nc2n1
- AC50 [7]: 12 µM (active)
- AC50 [8]: 12.1 µM (active)

Compound: Cc1ccccc1NC(=O)CN1C(=O)S/C(=C\c2ccc(-c3cc(C(=O)O)ccc3C)o2)C1=O
- EC50 [13]: 2.41 µM (active)
- IC50 [14]: 2.85 µM (active)
- EC50 [15]: 1.68 µM (active)
- IC50 [16]: 9.45 µM (active)
- IC50 [17]: 2.05 µM (active)
- IC50 [18]: 1.77 µM (active)
- IC50 [19]: 1.44 µM (active)

Compound: CCC(CC)NC(=S)c1ccc(O)c(OC)c1
- IC50 [1]: 0.766 µM (active)
- IC50 [2]: > 100 µM (inactive)

Compound: O=C(O)Cc1c[nH]c2cccc(O)c12
- IC50 [20]: 23.1 µM (active)
- IC50 [21]: 4.87 µM (active)
- AC50 [22]: 22.1 µM (active)
- IC50 [23]: 6.74 µM (active)
- AC50 [24]: 11.1 µM (active)
